The values below come from paper PMC4749225, “Azidobupramine, an Antidepressant-Derived Bifunctional Neurotransmitter Transporter Ligand Allowing Covalent Labeling and Attachment of Fluorophores” (PLoS ONE, 2016).

Each structure is given as a SMILES string. Where two headings read alike, the source gives them in different places.

Assay [1] has as its target T1, rSERT (Rattus norvegicus, UniProt P31652).
T1 construct: expressed in transfected cells; host or cells: T-REx-SERT cells (T-REx 293 based, tetracycline-inducible), gift of C.G. Tate
In words: Radioligand binding assay (RBA), competition with [3H]-citalopram, membranes of T-REx-SERT cells. The conditions noted are these: for IC50: 0.5 nM [3H]-citalopram, 34°C, 60 min; for Ki: IC50 converted to Ki according to Cheng-Prusoff.
Description: Tetracycline induced T-REx-SERT cells were mechanically disrupted with a hypotonic Tris-buffer (50 mM Tris, pH 7.9, proteinase inhibitor) in a two step procedure: dounce-homogenisation (Potter S, B.Braun, Melsungen, Germany) followed by an ultrasound treatment (sonifier W-250, Branson, CT, USA). Homogenates were centrifuged first at 800 rcf (10’, 4°C), followed by a second centrifugation step at 100,000 rcf (60’, 4°C). The resulting pellet was re-suspended in reaction-buffer RB1 (50 mM Tris-HCl, 150 mM NaCl, 5 mM KCl, proteinase inhibitor, pH 7.9), and stored at -80°C after protein determination (Pierce® BCA Protein Assay, Thermo Scientific, IL, USA).
Drugs were diluted in DMSO as solvent. Incubation was carried out at 34°C for 60’, and terminated by rapid filtration over polyethyleneimine preincubated GF/C filters using a Brandell MWXR-97TI cell harvester (Gaithersburg, MD, USA). Filters were washed three times with 2 ml of ice cold reaction-buffer RB1 and then incubated with scintillation liquid; radioactivity was measured by beta counting (MicroBeta, PerkinElmer LAS, Boston, MA, USA).

Assay [2] has as its target T2, hDAT (Homo sapiens, UniProt Q01959).
T2 construct: expressed in transfected cells
Description: Competitive MS Binding Assay (MSBA), (1R,3S)-indatraline as marker, HEK293 membrane fractions. As to the method:
(§1) Competitive MSBAs to characterize the affinity of test compounds employing (1R,3S)-indatraline as a marker for hDAT, hNET and hSERT, respectively, were performed exactly as described by Grimm et al.. For this purpose, membrane fractions obtained from HEK293 cell lines stably expressing the corresponding target protein were incubated in presence of a fixed concentration of (1R,3S)-indatraline together with varying concentrations of test compounds in 96 well plates. After separation of the non-bound marker by vacuum filtration from the binding samples, bound (1R,3S)-indatraline remaining on the filter was eluted with acetonitrile (containing internal standard) and quantified by LC-ESI-MS/MS. Subsequently, inhibition of (1R,3S)-indatraline binding caused by test compounds could be analyzed essentially in the same way as described for radioligand binding assays.

For assay [3], the target named is T3, hSERT (Homo sapiens, UniProt P31645).
T3 construct: expressed in transfected cells
Described as above. As to the method: as §1

Assay [4] has as its target T4, hNET (Homo sapiens, UniProt P23975).
T4 construct: expressed in transfected cells
Described as above. The conditions noted are these: read-out: Ki, NET. The procedure:
as §1

Assay [5] deals with T1, rSERT. Description: PAL of 17 in living T-REx-SERT cells followed by CuAAC rhodamine labelling, with competitor. The assay is classed as cell-based. As to conditions: 17 10 μM; UV-light 312 nm.
Description: T-REx-SERT cells expressing rSERT-His10-FLAG were kindly provided by C.G. Tate (MRC Laboratory of Molecular Biology, Cambridge, UK) [27]; cells were cultivated in suspension (FreeStyle™ 293 Expression medium, 10% FBS, antibiotic-antimycotic, and pyruvate); for selection purpose, 5 μg/ml blasticidin and 200 μg/ml zeocin were used; expression was induced by adding 1 μg/ml tetracycline for 5 days.
(§2) For all these experiments, rSERT was chosen as model target. The PAL-reaction was conducted either using rSERT-enriched protein material or living cells. In both cases, the subsequent CuAAC-reaction took place after the double-tagged rSERT-His10-FLAG was immobilized on ANTI-FLAG® M2 Affinity-gel (SigmaAldrich, MO, USA).
This was followed by UV-light induced covalent linkage (312 nm, 2x 60”, RT). The further processing was as described above, i.e. membrane preparation, solubilization and immobilization of rSERT to ANTI-FLAG® M2 Affinity-gel, CuAAC-reaction followed by protein elution, and SDS-PAGE.
Within the fluorescence based interaction studies of 17 with rSERT, the fluorescence signal was recorded with the ChemiDoc MP detection-system and analyzed using ImageLab (BioRad, CA, USA); for quantification, only those fluorescent signals were taken that correspond to Western blot verified rSERT (between 70-100 kDa). Recorded fluorescent signals were normalized to the Western-blot signal of rSERT. […]
Assay [6] deals with T1, rSERT. In words: PAL and CuAAC fluorescence assay of 17 on rSERT-enriched material immobilized on ANTI-FLAG M2 affinity gel, with competitors. It counts as binding. The conditions noted are these: for decrease in binding signal of 17 at enriched rSERT by competitor: 17 1 μM, competitor 1 mM (1000 fold molar excess), PAL then CuAAC rhodamine fluorescence.
Description: as §2
For the interaction analysis of azidobupramine (17) with rSERT-enriched material, 1 mg of membrane preparation was solubilized in reaction-buffer RB3 (52.6 mM Tris/HCl, 126.4 mM NaCl, 5.26 mM KCl, 1% Triton X-100, proteinase inhibitor, pH 7.9). Then rSERT was immobilized on ANTI-FLAG® M2 Affinity-gel (over night, 4°C, constant agitation), and unbound protein was removed by three washing steps with reaction-buffer RB4 (25 mM HEPES/NaOH, 126.4 mM NaCl, 5.26 mM KCl, proteinase inhibitor, pH 7.9). […] This was followed by UV-light exposure (312 nm, 2x 45”, RT) using the Dual Transilluminator from Stratagene (5x8 Watt, La Jolla, CA, USA), and copper mediated click reaction (60 μM Rhodamine-azide, 2.5 mM ascorbic acid, 250 μM CuSO4, and 500 μM bis[(tertbutyltriazoyl)methyl]-[(2-carboxymethyltriazoyl)methyl]amine (BTTAA), 60’, RT, constant agitation) [31].
Within the fluorescence based interaction studies of 17 with rSERT, the fluorescence signal was recorded with the ChemiDoc MP detection-system and analyzed using ImageLab (BioRad, CA, USA); for quantification, only those fluorescent signals were taken that correspond to Western blot verified rSERT (between 70-100 kDa). Recorded fluorescent signals were normalized to the Western-blot signal of rSERT.

T1 sequence (P31652 whole entry): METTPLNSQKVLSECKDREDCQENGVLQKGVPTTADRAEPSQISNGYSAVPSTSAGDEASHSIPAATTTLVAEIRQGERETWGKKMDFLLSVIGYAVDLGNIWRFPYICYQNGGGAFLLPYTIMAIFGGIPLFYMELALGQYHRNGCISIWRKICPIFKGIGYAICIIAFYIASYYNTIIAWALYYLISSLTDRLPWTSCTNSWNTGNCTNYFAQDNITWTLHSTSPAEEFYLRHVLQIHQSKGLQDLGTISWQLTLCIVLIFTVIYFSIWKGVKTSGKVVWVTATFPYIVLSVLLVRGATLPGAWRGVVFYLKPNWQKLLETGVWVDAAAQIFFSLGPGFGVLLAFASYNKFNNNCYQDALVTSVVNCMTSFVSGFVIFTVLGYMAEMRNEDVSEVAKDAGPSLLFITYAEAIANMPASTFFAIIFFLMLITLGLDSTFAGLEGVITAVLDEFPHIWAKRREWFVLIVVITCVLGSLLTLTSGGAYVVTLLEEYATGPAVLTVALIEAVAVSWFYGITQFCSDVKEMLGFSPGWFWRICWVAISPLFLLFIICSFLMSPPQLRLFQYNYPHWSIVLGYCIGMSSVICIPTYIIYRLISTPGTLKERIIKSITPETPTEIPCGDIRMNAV
T3 sequence (P31645 whole entry): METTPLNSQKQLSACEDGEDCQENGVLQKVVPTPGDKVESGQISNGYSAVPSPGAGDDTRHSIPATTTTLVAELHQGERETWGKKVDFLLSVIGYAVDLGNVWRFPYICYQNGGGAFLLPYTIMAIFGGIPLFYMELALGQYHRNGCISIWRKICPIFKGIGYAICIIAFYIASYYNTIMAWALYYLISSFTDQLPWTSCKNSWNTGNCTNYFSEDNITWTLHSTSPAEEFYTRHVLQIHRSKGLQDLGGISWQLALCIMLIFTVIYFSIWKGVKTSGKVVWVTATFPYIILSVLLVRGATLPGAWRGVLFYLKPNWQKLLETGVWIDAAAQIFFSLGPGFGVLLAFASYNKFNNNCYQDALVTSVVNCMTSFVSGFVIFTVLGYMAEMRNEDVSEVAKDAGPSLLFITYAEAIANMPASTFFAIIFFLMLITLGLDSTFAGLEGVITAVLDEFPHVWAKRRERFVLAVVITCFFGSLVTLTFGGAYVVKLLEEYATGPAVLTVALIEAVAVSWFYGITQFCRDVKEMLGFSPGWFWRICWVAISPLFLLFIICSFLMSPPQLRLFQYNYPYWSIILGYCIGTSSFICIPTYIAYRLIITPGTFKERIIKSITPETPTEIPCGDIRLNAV
T2 sequence (Q01959 whole entry): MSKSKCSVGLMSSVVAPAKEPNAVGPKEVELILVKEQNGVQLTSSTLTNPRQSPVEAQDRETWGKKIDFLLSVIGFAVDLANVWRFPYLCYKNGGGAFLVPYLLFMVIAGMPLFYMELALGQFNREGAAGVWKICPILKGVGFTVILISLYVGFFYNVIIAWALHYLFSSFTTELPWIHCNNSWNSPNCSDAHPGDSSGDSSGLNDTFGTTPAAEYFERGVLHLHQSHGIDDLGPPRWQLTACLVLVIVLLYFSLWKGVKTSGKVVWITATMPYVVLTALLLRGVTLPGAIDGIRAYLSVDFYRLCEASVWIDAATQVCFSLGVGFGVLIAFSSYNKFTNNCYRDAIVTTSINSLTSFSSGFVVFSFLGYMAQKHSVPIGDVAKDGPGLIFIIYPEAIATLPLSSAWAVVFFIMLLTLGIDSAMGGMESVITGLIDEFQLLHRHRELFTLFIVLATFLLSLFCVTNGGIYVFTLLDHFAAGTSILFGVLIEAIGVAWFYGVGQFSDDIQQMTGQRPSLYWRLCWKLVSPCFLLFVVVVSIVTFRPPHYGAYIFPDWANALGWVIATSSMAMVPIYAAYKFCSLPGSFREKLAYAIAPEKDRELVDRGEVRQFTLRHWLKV
T4 sequence (P23975 whole entry): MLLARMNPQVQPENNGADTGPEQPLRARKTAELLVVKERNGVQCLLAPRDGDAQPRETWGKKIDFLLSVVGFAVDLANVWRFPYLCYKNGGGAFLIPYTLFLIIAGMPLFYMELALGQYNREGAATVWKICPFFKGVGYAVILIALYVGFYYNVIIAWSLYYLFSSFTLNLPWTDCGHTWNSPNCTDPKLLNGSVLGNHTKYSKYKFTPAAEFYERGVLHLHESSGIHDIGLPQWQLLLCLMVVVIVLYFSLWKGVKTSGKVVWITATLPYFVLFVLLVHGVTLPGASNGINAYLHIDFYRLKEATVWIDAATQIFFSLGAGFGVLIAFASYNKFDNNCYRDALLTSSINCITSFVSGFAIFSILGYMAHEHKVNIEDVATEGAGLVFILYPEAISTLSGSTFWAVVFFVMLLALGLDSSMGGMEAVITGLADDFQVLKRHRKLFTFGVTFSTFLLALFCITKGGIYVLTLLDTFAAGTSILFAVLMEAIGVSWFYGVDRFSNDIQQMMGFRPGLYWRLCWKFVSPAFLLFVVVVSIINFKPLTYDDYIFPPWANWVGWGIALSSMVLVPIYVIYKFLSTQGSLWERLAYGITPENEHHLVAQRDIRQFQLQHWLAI

Turning to `CN(CCCN1c2ccccc2CCc2ccccc21)CC(=O)c1ccc(Cl)cc1` [compound 5, lofepramine, reference compound], in assay [1], the IC50 (as a rule, the point on the concentration scale where inhibition reaches its midpoint) is 1550 nM and the Ki came out at 1120 nM.

`CN(C)CCCN1c2ccccc2CCc2ccc(N=[N+]=[N-])cc21` [compound 11, 3-(3-azido-10,11-dihydro-5H-dibenzo[b,f]azepin-5-yl)-N,N-dimethyl propan-1-amine]: in assay [1], the IC50 is 12 nM and the Ki was determined as 8.82 nM.

On to `C#CCCN(C)CCCN1c2ccccc2CCc2ccc(N=[N+]=[N-])cc21` [compound 17, N-(3-(3-azido-10,11-dihydro-5H-dibenzo[b,f]azepin-5-yl)propyl)-N-methylbut-3-yn-1-amine], for which the Ki is 1640 nM in assay [2] (read-out: Ki, DAT); 1580 nM in assay [2] (three independent experiments, each in triplicates, read-out: pKi ±SEM, DAT (converted)); 103 nM in assay [3] (MSBA, read-out: Ki, SERT); 115 nM in assay [4]; 22.2 nM in assay [1]. In addition, the “drop in affinity to SERT, MSBA versus RBA” value in assay [3] (Ki 103 nM (MSBA, human) vs 22.2 nM (RBA, rat)) is 4.6 fold. Also, the “covalent labelling of rSERT in living cells” value in assay [5] is reported as “forms covalent bonds with rSERT after UV-light exposure in living cells”. For the same compound, the “covalent labelling of rSERT by PAL and visualization by CuAAC” value in assay [6] (rSERT-enriched material, UV-light 312 nm) is “interacts predominantly with rSERT”. The same compound showed an IC50 in assay [1] of 30.2 nM.

Take `CN1CCN2c3ncccc3Cc3ccccc3C2C1` (centres unmarked) [mirtazapine]: the entries for the “decrease in binding signal of 17 at enriched rSERT by competitor” value in assay [6] and in assay [6] (listed as MRT) were “does not” and “no effect”, respectively.

In assay [1], `CNCCCN1c2ccccc2CCc2ccc(N=[N+]=[N-])cc21` [compound 15, 3-(3-azido-10,11-dihydro-5H-dibenzo[b,f]azepin-5-yl)-N-methylpro-pan-1-amine] had an IC50 of 85.1 nM and a Ki of 62.4 nM.
